# Assay results from ChEMBL document CHEMBL5724914, “Linking interpersonal differences in gut microbiota composition and drug biotransformation activity” (2024).
# Key:
# [1] = (§1) The drug is tested on WLS-082 corresponding to human gut metagenome with ENA study accession number: PRJEB37062 and ENA sample accession number: ERS12561751 for biotransformation under anaerobic condition. The drug concentrations were measured over 9 timepoints collected between 0 and 24 hours of incubation by liquid-chromatography-coupled mass spectrometry (LC–MS); settings: 2 µM
# [2] = human gut metagenome, 24 h, 2 µM
# [3] = as §1, with “Z-018” for “WLS-082”, “pig” for “human”, “ERS12561817” for “ERS12561751”; settings: 2 µM
# [4] = as §1, with “Z-004” for “WLS-082”, “to” for “to human gut”, “ERS12561804” for “ERS12561751”; settings: 2 µM
# [5] = as §1, with “WLS-220” for “WLS-082”, “ERS12561769” for “ERS12561751”; settings: 2 µM
# [6] = as §1, with “WLS-039” for “WLS-082”, “ERS12561746” for “ERS12561751”; settings: 2 µM
# [7] = as §1, with “WLS-310” for “WLS-082”, “ERS12561785” for “ERS12561751”; settings: 2 µM
# [8] = human gut metagenome, 24 h, 2 µM; remark: listed apart in the source
# [9] = human gut metagenome, 24 h, 2 µM; remark: listed apart in the source
# [10] = human gut metagenome, 24 h, 2 µM; remark: listed apart in the source
# [11] = as §1, with “Z-016” for “WLS-082”, “mouse” for “human”, “ERS12561815” for “ERS12561751”; settings: 2 µM
# [12] = as §1, with “Z-027” for “WLS-082”, “to” for “to human gut”, “ERS12561826” for “ERS12561751”; settings: 2 µM
# [13] = as §1, with “Z-019” for “WLS-082”, “rat” for “human”, “ERS12561818” for “ERS12561751”; settings: 2 µM
# [14] = human gut metagenome, 24 h, 2 µM; remark: listed apart in the source
# [15] = as §1, with “WLS-077” for “WLS-082”, “ERS12561750” for “ERS12561751”; settings: 2 µM
# [16] = as §1, with “WLS-007” for “WLS-082”, “ERS12561742” for “ERS12561751”; settings: 2 µM
# [17] = human gut metagenome, 24 h, 2 µM; remark: listed apart in the source
# [18] = human gut metagenome, 24 h, 2 µM; remark: listed apart in the source
# [19] = human gut metagenome, 24 h, 2 µM; remark: listed apart in the source
# [20] = as §1, with “WLS-052” for “WLS-082”, “ERS12561747” for “ERS12561751”; settings: 2 µM
# Note: call rule not given here.
SMILES,Bacterial Biotransformation [1],Bacterial Biotransformation [2],Bacterial Biotransformation [3],Bacterial Biotransformation [4],Bacterial Biotransformation [5],Bacterial Biotransformation [6],Bacterial Biotransformation [7],Bacterial Biotransformation [8],Bacterial Biotransformation [9],Bacterial Biotransformation [10],Bacterial Biotransformation [11],Bacterial Biotransformation [12],Bacterial Biotransformation [13],Bacterial Biotransformation [14],Bacterial Biotransformation [15],Bacterial Biotransformation [16],Bacterial Biotransformation [17],Bacterial Biotransformation [18],Bacterial Biotransformation [19],Bacterial Biotransformation [20]
CN(C)CC(c1ccc(O)cc1)C1(O)CCCCC1.O=C(O)CCC(=O)O (stereo not given) [DESVENLAFAXINE SUCCINATE],Compound NOT metabolized,Compound NOT metabolized,Compound NOT metabolized,Compound NOT metabolized,Compound NOT metabolized,Compound NOT metabolized,Compound NOT metabolized,Compound NOT metabolized,Compound NOT metabolized,Compound NOT metabolized,Compound NOT metabolized,Compound NOT metabolized,Compound NOT metabolized,Compound NOT metabolized,Compound NOT metabolized,Compound NOT metabolized,Compound NOT metabolized,Compound NOT metabolized,Compound NOT metabolized,Compound NOT metabolized
CN1CCN(C(=O)O[C@H]2c3nccnc3C(=O)N2c2ccc(Cl)cn2)CC1 [ESZOPICLONE],Compound NOT metabolized,Compound NOT metabolized,Compound NOT metabolized,Compound NOT metabolized,Compound NOT metabolized,Compound NOT metabolized,Compound NOT metabolized,Compound NOT metabolized,Compound NOT metabolized,Compound NOT metabolized,Compound NOT metabolized,Compound NOT metabolized,Compound NOT metabolized,Compound NOT metabolized,Compound NOT metabolized,Compound NOT metabolized,Compound NOT metabolized,Compound NOT metabolized,Compound NOT metabolized,Compound NOT metabolized
O=C1[C@H](CC[C@H](O)c2ccc(F)cc2)[C@@H](c2ccc(O)cc2)N1c1ccc(F)cc1 [EZETIMIBE],Compound metabolized,Compound NOT metabolized,Compound NOT metabolized,Compound NOT metabolized,Compound metabolized,Compound NOT metabolized,Compound NOT metabolized,Compound NOT metabolized,Compound metabolized,Compound NOT metabolized,Compound NOT metabolized,Compound NOT metabolized,Compound NOT metabolized,Compound NOT metabolized,Compound metabolized,Compound metabolized,Compound metabolized,Compound metabolized,Compound NOT metabolized,Compound NOT metabolized
O=C1NCC2(CCN(CCc3ccccc3)CC2)O1 [FENSPIRIDE],Compound NOT metabolized,Compound NOT metabolized,Compound NOT metabolized,Compound NOT metabolized,Compound NOT metabolized,Compound NOT metabolized,Compound NOT metabolized,Compound NOT metabolized,Compound NOT metabolized,Compound NOT metabolized,Compound NOT metabolized,Compound NOT metabolized,Compound NOT metabolized,Compound NOT metabolized,Compound NOT metabolized,Compound NOT metabolized,Compound NOT metabolized,Compound NOT metabolized,Compound NOT metabolized,Compound NOT metabolized
OC(Cn1cncn1)(Cn1cncn1)c1ccc(F)cc1F [FLUCONAZOLE],Compound metabolized,Compound NOT metabolized,Compound NOT metabolized,Compound NOT metabolized,Compound NOT metabolized,Compound NOT metabolized,Compound metabolized,Compound metabolized,Compound metabolized,Compound metabolized,Compound NOT metabolized,Compound NOT metabolized,Compound NOT metabolized,Compound NOT metabolized,Compound NOT metabolized,Compound metabolized,Compound metabolized,Compound NOT metabolized,Compound NOT metabolized,Compound NOT metabolized
CNCCC(Oc1ccc(C(F)(F)F)cc1)c1ccccc1 (stereo not given) [FLUOXETINE],Compound NOT metabolized,Compound metabolized,Compound NOT metabolized,Compound NOT metabolized,Compound NOT metabolized,Compound NOT metabolized,Compound NOT metabolized,Compound NOT metabolized,Compound NOT metabolized,Compound NOT metabolized,Compound NOT metabolized,Compound NOT metabolized,Compound NOT metabolized,Compound NOT metabolized,Compound NOT metabolized,Compound NOT metabolized,Compound metabolized,Compound metabolized,Compound NOT metabolized,Compound NOT metabolized
O=C(CCCN1CCC(O)(c2ccc(Cl)cc2)CC1)c1ccc(F)cc1 [HALOPERIDOL],Compound metabolized,Compound NOT metabolized,Compound NOT metabolized,Compound NOT metabolized,Compound metabolized,Compound metabolized,Compound metabolized,Compound metabolized,Compound metabolized,Compound metabolized,Compound NOT metabolized,Compound NOT metabolized,Compound NOT metabolized,Compound NOT metabolized,Compound NOT metabolized,Compound NOT metabolized,Compound metabolized,Compound NOT metabolized,Compound NOT metabolized,Compound NOT metabolized
CCCCC1=NC2(CCCC2)C(=O)N1Cc1ccc(-c2ccccc2-c2nnn[nH]2)cc1 [IRBESARTAN],Compound metabolized,Compound metabolized,Compound metabolized,Compound metabolized,Compound metabolized,Compound metabolized,Compound metabolized,Compound metabolized,Compound metabolized,Compound metabolized,Compound NOT metabolized,Compound NOT metabolized,Compound NOT metabolized,Compound NOT metabolized,Compound metabolized,Compound metabolized,Compound metabolized,Compound metabolized,Compound metabolized,Compound metabolized
